Data on six molecules can be found in ChEMBL document CHEMBL3779836, “Inhibition of Histone Demethylases Offers a Novel and Promising Approach for the Treatment of Cancer and Other Diseases” (ACS Med Chem Lett, 2016).

As a reminder, the IC50 is the concentration at which inhibition is half-maximal.

SMILES strings stand for the structures.

One test has as its target T1, Lysine-specific demethylase 4C (Homo sapiens, UniProt Q9H3R0).
T1 sequence (Q9H3R0 whole entry): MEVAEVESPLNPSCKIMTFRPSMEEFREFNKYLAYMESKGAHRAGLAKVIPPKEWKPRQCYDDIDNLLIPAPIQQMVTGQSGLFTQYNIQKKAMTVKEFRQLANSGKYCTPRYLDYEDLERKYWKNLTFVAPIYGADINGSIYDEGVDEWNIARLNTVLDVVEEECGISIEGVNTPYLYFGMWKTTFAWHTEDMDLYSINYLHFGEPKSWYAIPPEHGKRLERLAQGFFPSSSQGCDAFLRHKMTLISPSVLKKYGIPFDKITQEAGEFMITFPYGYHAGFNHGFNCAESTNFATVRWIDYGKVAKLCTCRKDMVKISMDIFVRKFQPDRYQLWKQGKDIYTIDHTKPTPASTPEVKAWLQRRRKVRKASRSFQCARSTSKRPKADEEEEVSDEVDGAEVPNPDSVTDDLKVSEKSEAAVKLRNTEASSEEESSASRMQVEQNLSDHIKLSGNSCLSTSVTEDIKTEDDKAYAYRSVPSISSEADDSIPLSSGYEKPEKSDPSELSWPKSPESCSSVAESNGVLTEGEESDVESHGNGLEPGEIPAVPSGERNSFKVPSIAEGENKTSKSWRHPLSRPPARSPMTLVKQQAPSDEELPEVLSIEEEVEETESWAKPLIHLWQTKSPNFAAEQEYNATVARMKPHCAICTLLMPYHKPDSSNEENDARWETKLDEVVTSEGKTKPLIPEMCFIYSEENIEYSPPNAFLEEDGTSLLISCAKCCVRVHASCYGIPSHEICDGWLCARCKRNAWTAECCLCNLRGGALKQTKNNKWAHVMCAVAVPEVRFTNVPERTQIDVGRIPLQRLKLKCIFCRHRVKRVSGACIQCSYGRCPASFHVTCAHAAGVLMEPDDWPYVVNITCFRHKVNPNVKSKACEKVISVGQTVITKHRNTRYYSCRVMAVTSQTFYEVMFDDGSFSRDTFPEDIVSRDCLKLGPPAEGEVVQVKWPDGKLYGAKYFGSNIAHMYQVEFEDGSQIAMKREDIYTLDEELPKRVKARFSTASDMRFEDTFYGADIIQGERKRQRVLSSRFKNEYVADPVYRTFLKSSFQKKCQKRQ
The test can be described thus: Inhibition of human KDM4C preincubated for 10 mins followed by substrate addition by AlphaLISA assay. On the technique in general: Bead proximity is the source of the signal in Alpha formats.
On to `Cc1cn2c(n1)CCN(Cc1cc(C(=O)O)ccn1)CC2`, for which the IC50 was < 250 nM.
The same measure, in the same setting: under `C[C@H](c1ccccc1)N1CCC[C@H](CNCc2cc(C(=O)O)ccn2)C1=O` stands < 250 nM; under `C[C@H](c1ccccc1)N1CCC[C@@H](CNCc2cc(C(=O)O)ccn2)C1=O`, < 250 nM; under `C[C@H](c1ccccc1)N1CC[C@@H](CNCc2cc(C(=O)O)ccn2)C1=O`, < 250 nM.
On the same count and under the same terms, under `COc1ccc([C@@H](C)N2CCC[C@@H](CNCc3cc(C(=O)O)ccn3)C2=O)cc1` stands < 250 nM; under `CCN1CCC(CNCc2cc(C(=O)O)ccn2)C1=O` (stereo not given), < 250 nM.

Another test deals with Lysine-specific demethylase 5B (Homo sapiens, UniProt Q9UGL1). The test can be described thus: Inhibition of human KDM5B preincubated for 10 mins followed by substrate addition by AlphaLISA assay.
Lysine-specific demethylase 5B, sequence (Q9UGL1 whole entry): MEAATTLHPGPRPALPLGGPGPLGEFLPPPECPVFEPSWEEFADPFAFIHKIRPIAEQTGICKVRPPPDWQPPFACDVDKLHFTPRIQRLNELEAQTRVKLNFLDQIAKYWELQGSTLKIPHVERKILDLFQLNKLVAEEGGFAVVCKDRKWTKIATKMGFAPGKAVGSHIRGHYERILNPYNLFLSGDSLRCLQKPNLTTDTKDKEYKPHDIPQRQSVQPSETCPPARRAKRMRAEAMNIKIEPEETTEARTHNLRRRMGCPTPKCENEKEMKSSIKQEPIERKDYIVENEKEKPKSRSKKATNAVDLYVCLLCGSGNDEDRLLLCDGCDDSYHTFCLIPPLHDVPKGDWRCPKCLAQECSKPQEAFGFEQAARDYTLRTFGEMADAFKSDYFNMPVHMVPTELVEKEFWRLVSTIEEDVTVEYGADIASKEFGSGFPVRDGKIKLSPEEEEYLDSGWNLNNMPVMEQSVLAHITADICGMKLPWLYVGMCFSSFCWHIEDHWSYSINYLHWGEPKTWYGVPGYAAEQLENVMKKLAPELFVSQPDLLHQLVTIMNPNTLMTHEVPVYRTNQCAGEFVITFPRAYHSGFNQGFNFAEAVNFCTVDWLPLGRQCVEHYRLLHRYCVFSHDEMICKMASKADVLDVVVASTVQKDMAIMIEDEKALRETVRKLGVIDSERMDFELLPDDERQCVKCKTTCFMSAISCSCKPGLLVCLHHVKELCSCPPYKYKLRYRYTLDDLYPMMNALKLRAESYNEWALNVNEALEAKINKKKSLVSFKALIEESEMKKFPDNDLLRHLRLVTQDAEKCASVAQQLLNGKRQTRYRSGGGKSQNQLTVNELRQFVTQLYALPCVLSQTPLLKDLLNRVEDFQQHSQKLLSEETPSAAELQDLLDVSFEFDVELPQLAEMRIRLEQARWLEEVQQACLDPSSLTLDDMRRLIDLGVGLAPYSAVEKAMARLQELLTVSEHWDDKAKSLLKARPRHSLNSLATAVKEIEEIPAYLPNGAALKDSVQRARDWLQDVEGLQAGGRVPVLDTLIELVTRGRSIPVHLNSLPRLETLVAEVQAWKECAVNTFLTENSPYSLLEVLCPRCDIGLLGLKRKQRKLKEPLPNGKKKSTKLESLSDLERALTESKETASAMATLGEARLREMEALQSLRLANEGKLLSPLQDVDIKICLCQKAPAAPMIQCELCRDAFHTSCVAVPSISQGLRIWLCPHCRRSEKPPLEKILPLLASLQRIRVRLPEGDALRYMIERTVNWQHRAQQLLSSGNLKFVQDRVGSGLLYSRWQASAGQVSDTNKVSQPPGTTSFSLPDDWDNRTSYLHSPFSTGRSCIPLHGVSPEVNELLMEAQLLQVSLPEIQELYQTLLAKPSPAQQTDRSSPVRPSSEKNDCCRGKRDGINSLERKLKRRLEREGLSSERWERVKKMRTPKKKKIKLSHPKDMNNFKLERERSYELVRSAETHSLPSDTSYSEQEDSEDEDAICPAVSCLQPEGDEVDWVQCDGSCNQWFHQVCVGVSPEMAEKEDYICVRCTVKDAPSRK
Consider `Cc1cn2c(n1)CCN(Cc1cc(C(=O)O)ccn1)CC2`, for which the IC50 was < 250 nM.
For the molecule `C[C@H](c1ccccc1)N1CCC[C@H](CNCc2cc(C(=O)O)ccn2)C1=O`, the IC50 was < 250 nM.
Still for that read-out and setting: under `C[C@H](c1ccccc1)N1CCC[C@@H](CNCc2cc(C(=O)O)ccn2)C1=O` stands < 250 nM; under `C[C@H](c1ccccc1)N1CC[C@@H](CNCc2cc(C(=O)O)ccn2)C1=O`, < 250 nM.
On the same count and under the same terms, next, `COc1ccc([C@@H](C)N2CCC[C@@H](CNCc3cc(C(=O)O)ccn3)C2=O)cc1`: < 250 nM.
Consider `CCN1CCC(CNCc2cc(C(=O)O)ccn2)C1=O` (stereo not given), for which the IC50 is < 250 nM.

In a further test the target is Lysine-specific demethylase 6A (Homo sapiens, UniProt O15550). The test can be described thus: Inhibition of human KDM6A preincubated for 10 mins followed by substrate addition by AlphaLISA assay.
Lysine-specific demethylase 6A, sequence (O15550 whole entry): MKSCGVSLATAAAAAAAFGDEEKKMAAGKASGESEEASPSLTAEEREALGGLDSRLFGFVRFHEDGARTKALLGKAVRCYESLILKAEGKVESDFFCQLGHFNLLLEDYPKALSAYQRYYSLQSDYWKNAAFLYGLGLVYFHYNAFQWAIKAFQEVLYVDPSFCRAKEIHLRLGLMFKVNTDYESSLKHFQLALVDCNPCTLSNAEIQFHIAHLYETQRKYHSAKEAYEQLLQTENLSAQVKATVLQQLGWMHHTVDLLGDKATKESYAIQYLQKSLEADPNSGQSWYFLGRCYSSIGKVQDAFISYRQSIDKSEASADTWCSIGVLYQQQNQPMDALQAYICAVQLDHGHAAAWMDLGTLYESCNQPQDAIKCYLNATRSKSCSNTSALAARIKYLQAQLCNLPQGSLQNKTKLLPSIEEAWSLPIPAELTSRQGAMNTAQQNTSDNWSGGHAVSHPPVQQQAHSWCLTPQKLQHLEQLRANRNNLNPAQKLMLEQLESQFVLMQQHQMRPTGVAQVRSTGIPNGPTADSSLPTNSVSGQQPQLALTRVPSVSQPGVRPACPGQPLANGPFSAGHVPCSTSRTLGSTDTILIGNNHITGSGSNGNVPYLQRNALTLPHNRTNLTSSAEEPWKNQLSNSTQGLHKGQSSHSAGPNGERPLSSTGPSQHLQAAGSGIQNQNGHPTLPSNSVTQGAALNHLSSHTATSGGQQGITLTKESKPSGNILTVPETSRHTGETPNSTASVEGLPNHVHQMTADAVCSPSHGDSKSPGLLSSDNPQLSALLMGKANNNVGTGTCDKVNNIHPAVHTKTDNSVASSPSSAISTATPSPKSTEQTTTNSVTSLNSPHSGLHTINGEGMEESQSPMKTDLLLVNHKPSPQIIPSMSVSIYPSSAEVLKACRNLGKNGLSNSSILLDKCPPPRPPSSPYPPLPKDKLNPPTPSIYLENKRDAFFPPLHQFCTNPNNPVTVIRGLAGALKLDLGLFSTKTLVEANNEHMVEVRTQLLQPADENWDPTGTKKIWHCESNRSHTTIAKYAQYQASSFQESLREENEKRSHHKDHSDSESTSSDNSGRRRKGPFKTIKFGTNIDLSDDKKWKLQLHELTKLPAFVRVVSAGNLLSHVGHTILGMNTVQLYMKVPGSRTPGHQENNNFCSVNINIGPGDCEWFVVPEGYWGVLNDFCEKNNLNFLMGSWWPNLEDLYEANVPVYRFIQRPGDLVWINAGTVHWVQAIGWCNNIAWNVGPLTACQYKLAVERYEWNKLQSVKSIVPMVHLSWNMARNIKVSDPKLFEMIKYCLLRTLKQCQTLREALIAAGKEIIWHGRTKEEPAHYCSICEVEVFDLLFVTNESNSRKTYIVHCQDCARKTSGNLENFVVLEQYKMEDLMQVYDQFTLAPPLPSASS
`Cc1cn2c(n1)CCN(Cc1cc(C(=O)O)ccn1)CC2`: the IC50 was > 2500 nM.
For the molecule `C[C@H](c1ccccc1)N1CCC[C@H](CNCc2cc(C(=O)O)ccn2)C1=O`, the concentration for half-maximal inhibition (IC50) is > 2500 nM.
Same read-out and setting: under `C[C@H](c1ccccc1)N1CCC[C@@H](CNCc2cc(C(=O)O)ccn2)C1=O` stands > 2500 nM.
On the same count and under the same terms, next, `C[C@H](c1ccccc1)N1CC[C@@H](CNCc2cc(C(=O)O)ccn2)C1=O`: > 2500 nM; `COc1ccc([C@@H](C)N2CCC[C@@H](CNCc3cc(C(=O)O)ccn3)C2=O)cc1`: > 2500 nM; `CCN1CCC(CNCc2cc(C(=O)O)ccn2)C1=O` (stereo not given): > 2500 nM.

Another test addresses T2, Lysine-specific demethylase 2B (Homo sapiens, UniProt Q8NHM5).
T2 sequence (Q8NHM5 whole entry): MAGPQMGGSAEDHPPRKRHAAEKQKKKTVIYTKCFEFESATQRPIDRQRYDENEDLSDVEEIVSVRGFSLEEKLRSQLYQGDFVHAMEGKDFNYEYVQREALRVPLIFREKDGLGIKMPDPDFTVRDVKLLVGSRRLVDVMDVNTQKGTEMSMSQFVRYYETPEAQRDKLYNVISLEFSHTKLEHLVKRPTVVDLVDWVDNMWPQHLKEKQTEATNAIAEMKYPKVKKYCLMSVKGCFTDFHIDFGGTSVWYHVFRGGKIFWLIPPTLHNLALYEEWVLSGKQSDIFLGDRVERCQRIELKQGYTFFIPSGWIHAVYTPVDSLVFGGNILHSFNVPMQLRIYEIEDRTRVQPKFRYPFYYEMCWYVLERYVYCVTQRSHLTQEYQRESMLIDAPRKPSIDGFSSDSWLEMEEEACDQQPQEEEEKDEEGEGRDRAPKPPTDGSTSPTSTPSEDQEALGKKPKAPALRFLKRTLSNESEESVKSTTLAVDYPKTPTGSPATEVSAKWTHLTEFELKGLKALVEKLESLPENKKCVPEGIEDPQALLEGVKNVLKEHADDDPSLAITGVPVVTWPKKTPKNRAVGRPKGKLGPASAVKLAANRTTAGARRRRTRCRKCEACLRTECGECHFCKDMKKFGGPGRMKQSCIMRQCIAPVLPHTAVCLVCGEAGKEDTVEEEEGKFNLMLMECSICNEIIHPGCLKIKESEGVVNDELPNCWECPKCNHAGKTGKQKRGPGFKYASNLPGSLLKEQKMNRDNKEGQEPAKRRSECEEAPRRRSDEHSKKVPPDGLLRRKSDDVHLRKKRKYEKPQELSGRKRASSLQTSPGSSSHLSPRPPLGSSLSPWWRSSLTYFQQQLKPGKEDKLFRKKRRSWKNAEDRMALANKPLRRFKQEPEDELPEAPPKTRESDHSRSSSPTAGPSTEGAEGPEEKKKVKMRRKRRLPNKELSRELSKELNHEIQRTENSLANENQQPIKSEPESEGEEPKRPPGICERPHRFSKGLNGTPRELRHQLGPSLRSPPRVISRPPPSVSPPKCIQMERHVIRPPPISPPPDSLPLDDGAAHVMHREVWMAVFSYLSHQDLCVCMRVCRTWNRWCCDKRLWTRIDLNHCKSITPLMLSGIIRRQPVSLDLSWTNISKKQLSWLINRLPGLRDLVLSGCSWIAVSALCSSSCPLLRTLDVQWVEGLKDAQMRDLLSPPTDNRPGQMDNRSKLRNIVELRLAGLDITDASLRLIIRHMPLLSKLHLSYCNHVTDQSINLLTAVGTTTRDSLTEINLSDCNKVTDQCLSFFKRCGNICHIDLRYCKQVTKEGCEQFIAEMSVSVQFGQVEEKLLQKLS
The test can be described thus: Inhibition of human KDM2B preincubated for 10 mins followed by substrate addition by AlphaLISA assay.
As for `Cc1cn2c(n1)CCN(Cc1cc(C(=O)O)ccn1)CC2`, the IC50 was > 2500 nM.
The same measure, in the same setting: under `C[C@H](c1ccccc1)N1CCC[C@H](CNCc2cc(C(=O)O)ccn2)C1=O` stands < 250 nM.
Still for that read-out and setting: next, `C[C@H](c1ccccc1)N1CCC[C@@H](CNCc2cc(C(=O)O)ccn2)C1=O`: < 250 nM; `C[C@H](c1ccccc1)N1CC[C@@H](CNCc2cc(C(=O)O)ccn2)C1=O`: < 250 nM.
Still for that read-out and setting: next, `COc1ccc([C@@H](C)N2CCC[C@@H](CNCc3cc(C(=O)O)ccn3)C2=O)cc1`: < 250 nM; `CCN1CCC(CNCc2cc(C(=O)O)ccn2)C1=O` (stereo not given): < 250 nM.

The target in the next test is Histone lysine demethylase PHF8 (Homo sapiens, UniProt Q9UPP1). The test can be described thus: Inhibition of human PHF8 preincubated for 10 mins followed by substrate addition by AlphaLISA assay.
Histone lysine demethylase PHF8, sequence (Q9UPP1 whole entry): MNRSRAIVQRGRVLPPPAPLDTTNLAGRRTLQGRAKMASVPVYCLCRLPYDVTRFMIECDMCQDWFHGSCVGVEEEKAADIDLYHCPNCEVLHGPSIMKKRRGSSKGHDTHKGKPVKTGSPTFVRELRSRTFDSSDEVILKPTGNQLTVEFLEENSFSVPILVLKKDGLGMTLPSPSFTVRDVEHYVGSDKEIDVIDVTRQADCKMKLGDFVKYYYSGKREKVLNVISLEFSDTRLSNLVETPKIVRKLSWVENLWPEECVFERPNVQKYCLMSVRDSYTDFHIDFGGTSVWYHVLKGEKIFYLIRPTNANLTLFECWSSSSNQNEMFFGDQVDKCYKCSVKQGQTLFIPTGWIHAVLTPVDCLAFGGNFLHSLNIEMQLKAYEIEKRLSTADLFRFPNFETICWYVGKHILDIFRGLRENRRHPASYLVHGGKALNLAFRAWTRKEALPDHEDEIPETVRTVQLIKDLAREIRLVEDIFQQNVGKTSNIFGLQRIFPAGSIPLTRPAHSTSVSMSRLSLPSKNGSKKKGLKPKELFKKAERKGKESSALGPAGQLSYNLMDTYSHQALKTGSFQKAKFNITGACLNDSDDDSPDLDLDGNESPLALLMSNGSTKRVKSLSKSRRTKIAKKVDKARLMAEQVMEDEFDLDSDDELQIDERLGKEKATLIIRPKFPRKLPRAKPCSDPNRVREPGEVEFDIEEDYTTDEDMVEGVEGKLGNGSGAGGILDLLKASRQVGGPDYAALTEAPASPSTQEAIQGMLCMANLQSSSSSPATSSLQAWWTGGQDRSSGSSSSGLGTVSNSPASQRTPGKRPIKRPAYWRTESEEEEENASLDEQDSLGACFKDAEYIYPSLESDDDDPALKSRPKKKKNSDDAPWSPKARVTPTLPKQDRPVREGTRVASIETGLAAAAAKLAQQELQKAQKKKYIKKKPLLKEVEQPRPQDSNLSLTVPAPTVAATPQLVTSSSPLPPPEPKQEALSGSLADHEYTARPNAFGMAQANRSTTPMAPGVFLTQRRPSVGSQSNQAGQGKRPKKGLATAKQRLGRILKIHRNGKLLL
Consider `Cc1cn2c(n1)CCN(Cc1cc(C(=O)O)ccn1)CC2`, for which the IC50 is < 250 nM.
On the same count and under the same terms, next, `C[C@H](c1ccccc1)N1CCC[C@H](CNCc2cc(C(=O)O)ccn2)C1=O`: < 250 nM; `C[C@H](c1ccccc1)N1CCC[C@@H](CNCc2cc(C(=O)O)ccn2)C1=O`: < 250 nM.
The same measure, in the same setting: under `C[C@H](c1ccccc1)N1CC[C@@H](CNCc2cc(C(=O)O)ccn2)C1=O` stands < 250 nM; under `COc1ccc([C@@H](C)N2CCC[C@@H](CNCc3cc(C(=O)O)ccn3)C2=O)cc1`, < 250 nM; under `CCN1CCC(CNCc2cc(C(=O)O)ccn2)C1=O` (stereo not given), < 250 nM.
